Consider six molecules from patent US20120152149A1, “USE OF 1,3-DIOLS AS BIOCIDES” (BASF SE, priority 2009, published 2012).

Read-outs that look alike come from different tables or passages of the source.

What all share (type): cell-based
Test [1] deals with A. niger ATCC 6275. The test can be described thus: Suspension test EN 1275, fungicidal activity against molds. Particulars: 1% active substance in the test.
In test [2] the test system is P. aeruginosa ATCC 15442. Nature of the test: Suspension test EN 1040, bactericidal activity. Particulars: 1000 ppm of active substance. The procedure:
(§1) The bactericidal activity of the substances of this invention was carried out in a suspension test corresponding to the European standard EN 1040 and compared with the activities of customary commercial products. For this, only relatively small modifications were made. The substances of the formula (1) were dissolved in water or ethanol to give a 1% strength stock solution. For determining the bactericidal activities, the test mixtures were selected such that 1000 ppm of active substance was present in an aqueous solution. The procedure was the same with the comparison samples. For the results shown in table 2, the test mixtures were inoculated with the following bacterial strains such that the stated germ densities were present in the test mixtures. P. aeruginosa ATCC 15442 1−2×10^7 CFU/ml The test mixtures were incubated at room temperature (22° C.+/−2° C.). After defined contact times, aliquots of 1 ml were taken in order to determine the surviving germ count. For the deactivation of the microbicidal activity of the diols, the aliquots were diluted in 1:10 dilution steps in a solution of TS broth with 10% Tween, 3% lecithin, 0.1% histidines and 0.5% sodium thiosulfate and the 10^−2 and 10^−3 dilution stages were used for determining the surviving germ count. For this purpose, corresponding aliquots were plated out on Caso medium with inhibitor (Merck) and incubated at 37° C. for 24 h. The ascertained surviving germ counts were in each case compared with a mixture containing water (water control) by determining the logarithmic reduction in the surviving germ counts based on the water control.

Test [3] relates to series of tested microorganisms (bacteria and fungi). Nature of the test: Microstatic activity, highest MIC from the series of tested microorganisms. Particulars: highest measured MIC from the series of tested microorganisms. The method, then: The following microorganisms were used;to test the biocidal effect against various bacteria and fungi: In each case, the MIC (Minimum Inhibitory Concentration) value was determined. This value indicates the minimum concentration above which the growth of the microorganisms was visibly hindered compared to the corresponding sample without addition of the diol. The MIC value stated is a range between the next higher concentration of a positive test and the same and/or lower concentration of a first negative test. In the last line of each of the tables below, a “maximum” value is listed. This value indicates the highest measured MIC value in each case from the series of tested microorganisms.

Test [4] relates to E. coli ATCC 10536. The test can be described thus: Suspension test EN 1040, bactericidal activity. Particulars: 1000 ppm of active substance. The method, then: as §1, with “E. coli” for “P. aeruginosa”, “10536” for “15442”
The test system of test [5] is E. coli ATCC 10536, S. aureus ATCC 6538, P. aeruginosa ATCC 15442. The test can be described thus: Preservation stress test, example formulation 1 (standard emulsion O/W), bacteria together. Particulars: 1% active substance, P. aeruginosa (one time series). The method, then: Preservation stress tests (PSTs) were carried out in order to determine the preserving activity of the diols. In the preservation stress test, this is simulated through artificial loadings with microorganisms. These can either be inoculated as mixed population or individually in mixtures independent of one another. The inoculated product samples are incubated under defined conditions and, after defined times, samples are taken in order to determine the germ loading. In the case of adequate preservation, the number of microorganisms should, depending on the type, either decrease or remain constant in order to satisfy the requirements specified, e.g. in Ph. Eur. 6.0. To investigate the preserving effect of the diols, application-typical amounts of the diols were incorporated into example formulations. […] [table] These example formulations were used to prepare various mixtures which each comprised 1% active substance or comprised water instead of the active substance as placebo mixtures. These mixtures were in each case inoculated with the test germs such that a germ loading of 10^5-10^6 CFU/g was present in the test mixture. The bacteria were either used individually for the inoculation or as a mixed culture. To determine the starting germ count, immediately after inoculation, an aliquot was taken, diluted in dilution medium (phosphate buffer, 0.07 molar pH 7.4 (+/−0.2), with 1% Tween 80+0.3% soya lecithin), and the surviving germ count was determined in the dilution stages 10^−1 to 10^−3. The inoculated product samples then incubated for a total of 28 d at 20-25° C. After 2 d, 7 d, 14 d and after 28 d, aliquots were taken and diluted in dilution medium (phosphate buffer, 0.07 molar pH 7.4 (+/−0.2), with 1% Tween 80+0.3% soya lecithin). The surviving germ counts were determined in the dilution stages 10^−1 to 10^−4. The reference point taken for determining the reduction in germ count was the respective initial value of the sample. The results were given as logarithmic reductions.

Where [6] appears, read: lower limit, read-out: Maximum MIC value (ppm of diol), from.
Where [7] appears, read: upper limit, read-out: Maximum MIC value (ppm of diol), to.

What is called MIC is the smallest concentration in the dilution series that meets the test's criterion for growth inhibition. In the case of `CCCC(O)CO` (centres unmarked) [1,2-Pentanediol, 1,2-pentanediol, reference compound], the “Microbicidal activity given as logarithmic reduction in germ count” value in test [1] (contact time 24 h), in test [1] (contact time 7 d), in test [2] (contact time 5 min), in test [4] (contact time 5 min), in test [4] (contact time 30 min) and in test [4] (contact time 24 h) was under 1 log. red in each case. The MIC in test [3] (setting [6]) is over 25 mg/mL; in test [3] (setting [7]), at most 50 mg/mL.
For `OCC1(CO)CC2CCC1C2` (centres unmarked) [2,2-DMNB, 2,2-dimethylolnorbornane], the minimum inhibitory concentration (MIC) in test [3] (setting [6]) is over 50 mg/mL; in test [3] (setting [7]), at most 100 mg/mL. In addition, the “Microbicidal activity given as logarithmic reduction in germ count” value in test [5] (48 h) is reported as “≧3 log. Red”; in test [5] (7 d), 5 log. Red; in test [5] (14 d), 5 log. Red; in test [5] (28 d) it was 5 log. Red.
As for `OCC1(CO)CCCC1` [DMCP, 1,1-dimethylolcyclopentane], the MIC is over 50 mg/mL in test [3] (setting [6]) and at most 100 mg/mL in test [3] (setting [7]). For the same molecule, the “Microbicidal activity given as logarithmic reduction in germ count” value stood at 3 log. Red in test [5] (48 h), 5 log. Red in test [5] (7 d), 5 log. Red in test [5] (14 d) and 5 log. Red in test [5] (28 d).
With `CC(C)C(C)(CO)CO` [IMPD, 2-isopropyl-2-methylpropane-1,3-diol], the MIC in test [3] (setting [6]) was over 25 mg/mL; in test [3] (setting [7]), at most 50 mg/mL. The “Microbicidal activity given as logarithmic reduction in germ count” value in test [5] (48 h) is reported as “≧3 log. Red”; in test [5] (7 d), 5 log. Red; in test [5] (14 d) it was 5 log. Red; in test [5] (28 d), 5 log. Red.
Take `CCCCCCCCC(C)(CO)CO` [OMPD, 2-octyl-2-methylpropane-1,3-diol]: the “Microbicidal activity given as logarithmic reduction in germ count” value is on record as under 1 log. red in test [1] (contact time 24 h); 2.6 log. red in test [1] (contact time 7 d); 4.5 log. red in test [2] (contact time 5 min); 4.7 log. red in test [2] (contact time 30 min); over 5 log. red in test [4] (contact time 5 min); over 5 log. red in test [4] (contact time 30 min). Also, the “Microbicidal activity given as logarithmic reduction in germ count” value in test [4] (contact time 24 h) is over 5 log. red; in test [5] (48 h) it was “≧3 log. Red”; in test [5] (7 d), 5 log. Red; in test [5] (14 d) it was 5 log. Red; in test [5] (28 d), 5 log. Red. Further, in test [3] (setting [6]), the minimal inhibitory concentration (MIC) was over 100 mg/mL.
`CCCCCC(CO)(CO)CCC` [PPPD, 2-pentyl-2-propylpropane-1,3-diol]: the “Microbicidal activity given as logarithmic reduction in germ count” value in test [1] (contact time 24 h) is 2.9 log. red; in test [1] (contact time 7 d) it was over 4 log. red; in test [2] (contact time 5 min), 3.2 log. red; in test [2] (contact time 30 min), 3.1 log. red; in test [4] (contact time 5 min), over 5 log. red; in test [4] (contact time 30 min), over 5 log. red. Moreover, the “Microbicidal activity given as logarithmic reduction in germ count” value is listed as over 5 log. red in test [4] (contact time 24 h); “≧3 log. Red” in test [5] (48 h); 5 log. Red in test [5] (7 d); 5 log. Red in test [5] (14 d); 5 log. Red in test [5] (28 d). Moreover, in test [3] (setting [6]), the MIC is over 100 mg/mL.
